Data taken from PMC6600542 (Molecules, 2019).
Where “and” joins values, the source holds several entries; their conditions need not be identical. Identical values can stand only once.

How the values were obtained:
Type in all cases: biochemical
human plasmin [1] = biological target: T1, human plasmin (Homo sapiens, UniProt P00747); assay: In vitro plasmin-mediated clot lysis (fibrinolysis) assay; conditions: rate of clot lysis over 5–100 min, pH 7.4, 25 °C
Procedure: The method followed here was similar to that reported earlier. This in vitro experiment was conducted in 96-well platform in pH 7.4 buffer at 25 °C. The clot was generated by the addition of 80 µL of a solution of human thrombin (2.5 µg/mL) in 20 mM TrisHCl buffer containing 10 mM CaCl2 to 60 µL of a solution of fibrinogen (10 mg/mL) and FXIIIa (2 µg/mL) in 20 mM TrisHCl buffer containing 10 mM CaCl2. The resulting clot was stabilized for 15 min at 25 °C. The absorbance was then measured at 405 nm and was ~0.98 across all wells. […] Finally, 5 µL of human plasmin (stock of 1.6 µM) in 20 mM TrisHCl buffer of pH 7.4 containing 2.5 mM CaCl2 and 100 mM NaCl was added to each well and the A405 of each well was recorded over more than 340 min at various time intervals. […] (1) Y=Y0+YM−Y0/1+10^(log[I]0−logIC50)(HS)

[2] = test system: human plasma deficient of FXII; assay: APTT clotting assay, FXII-deficient plasma
Procedure: (§1) For the PT assay, thromboplastin-D was reconstituted according to the manufacturer’s directions and warmed to 37 °C. […] After incubation for 4 min at 37 °C, clotting was initiated by adding 100 μL of prewarmed 25 mM CaCl2 and the time to clotting was noted. […] To determine the in vitro effect on the APTT of deficient human plasmas, the APTT assay was repeated, using human plasmas deficient of factor VII (FVII), factor IX (FIX), FXI, or factor XII (FXII). […] The positive control used in APTT and PT assays was rivaroxaban, a clinically used FXa inhibitor. Under the conditions reported, rivaroxaban doubled the APTT and PT at concentrations of 0.123 ± 0.003 µM and 0.193 ± 0.043 µM, respectively.

FXIa = biological target: T2, FXIa (Homo sapiens, UniProt P03951); assay: FXIa chromogenic substrate hydrolysis assay
T2 construct: purchased Haematologic Technologies, Inc; host or cells: plasma
Procedure: (§2) Direct inhibition of the human coagulation transglutaminase FXIIIa was also studied using a fluorescence-based transglutamination assay as reported in the literature.
(§3) After 10 min incubation, 5 µL FXIa substrate (6.9 mM stock concentration) was rapidly added and the residual FXIa activity was measured from the initial rate of increase in absorbance at 405 nm. Assays were performed in similar fashion with trypsin and chymotrypsin. Stock concentrations used were 18.9 µg/mL (trypsin) and 22.7 mM (S-2222) for bovine trypsin assay (final volume was 200 µL) and 2 µg/mL (chymotrypsin) and 16.2 mM (N-Succinyl-Ala-Ala-Pro-Phe-p-nitroanilide) for bovine chymotrypsin assay (final volume was 200 µL). The buffer used for FXIa, trypsin, chymotrypsin assays was 50 mM Tris-HCl buffer, pH 7.4, containing 150 mM NaCl, 2.5 mM CaCl2, 0.1% PEG8000, and 0.02% Tween80. Neutrophil elastase inhibition assay was performed in a 96-well plate with a final volume of 100 µl with 0.125 M 4-(2-hydroxyethyl)-1-piperazineethanesulfonic acid (HEPES) buffer, pH 7.4 containing 0.125% Triton-X 100, as reported earlier. […] After incubation, 3 µL neutrophil elastase substrate (S-1384; 25 mM stock conc.) was rapidly added and the residual enzyme activity measured from the initial rate of increase in the absorbance at 405 nm.

bovine chymotrypsin = biological target: T3, bovine chymotrypsin (Bos taurus, UniProt P00766); assay: Chymotrypsin chromogenic substrate hydrolysis assay; conditions: pH 7.4
T3 construct: purchased Millipore-Sigma
Procedure: as §2, §3

normal human plasma = assay: APTT clotting assay, normal human plasma; conditions: normal human plasma (text)
Procedure: as §1

human FXIIIa = biological target: T4, human FXIIIa (Homo sapiens, UniProt P00488); assay: FXIIIa fluorescence-based transglutamination assay; conditions: pH 7.4, 37 °C
T4 construct: followed by the addition of 2 μL human FXIIIa (0.3 μM); purchased Haematologic Technologies, Inc
T4 sequence (P00488 39-732 limits assumed): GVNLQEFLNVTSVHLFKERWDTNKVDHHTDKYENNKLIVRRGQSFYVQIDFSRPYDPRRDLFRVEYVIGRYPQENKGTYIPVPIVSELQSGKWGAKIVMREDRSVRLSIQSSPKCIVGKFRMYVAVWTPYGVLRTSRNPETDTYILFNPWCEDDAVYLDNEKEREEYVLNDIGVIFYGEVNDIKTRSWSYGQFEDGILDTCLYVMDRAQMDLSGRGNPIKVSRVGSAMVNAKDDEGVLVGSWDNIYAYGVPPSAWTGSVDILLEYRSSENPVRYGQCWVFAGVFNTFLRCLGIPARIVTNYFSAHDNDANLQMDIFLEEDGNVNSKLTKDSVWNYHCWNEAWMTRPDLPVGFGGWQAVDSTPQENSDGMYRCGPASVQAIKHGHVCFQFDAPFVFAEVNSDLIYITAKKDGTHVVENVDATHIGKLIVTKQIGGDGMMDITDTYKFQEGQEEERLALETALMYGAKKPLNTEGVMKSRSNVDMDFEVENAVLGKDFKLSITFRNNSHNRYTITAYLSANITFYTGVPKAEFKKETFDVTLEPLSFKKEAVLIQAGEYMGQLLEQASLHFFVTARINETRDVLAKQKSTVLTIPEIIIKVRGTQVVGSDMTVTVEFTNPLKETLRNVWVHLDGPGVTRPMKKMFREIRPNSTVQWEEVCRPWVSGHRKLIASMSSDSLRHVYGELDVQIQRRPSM
Procedure: as §2
The activity of FXIIIa was evaluated by the addition of 5 μL dansylcadaverine (2 mM) and measuring the initial rate of increase in fluorescence emission (λEx. = 360 nm and λEm. = 490 nm). In all assays, the dose dependence of the fractional residual enzyme activity, if any, was analyzed using Equation (1) above to obtain the apparent concentration of the test molecule required to reduce the enzyme activity to 50% of its initial value. All assays were performed three times.

human plasmin [3] = biological target: T1, human plasmin; assay: Michaelis-Menten kinetics of Spectrozyme PL hydrolysis by plasmin; conditions: for VMAX of Spectrozyme PL hydrolysis: pH 7.4, 37 °C
Procedure: The initial rate of Spectrozyme FXa hydrolysis by human FXa (87 nM) or that of Spectrozyme PL hydrolysis by human plasmin (120 nM) was monitored from the linear increase in absorbance at 405 nm corresponding to less than 10% consumption of the substrate. […] The data were fitted by Michaelis-Menten Equation (2) to determine KM (substrate affinity to the enzyme) and VMAX (maximum velocity of enzyme reaction). (2) Vi=VMAX×[S]/KM+[S]

T1 sequence (P00747 581-810 limits assumed): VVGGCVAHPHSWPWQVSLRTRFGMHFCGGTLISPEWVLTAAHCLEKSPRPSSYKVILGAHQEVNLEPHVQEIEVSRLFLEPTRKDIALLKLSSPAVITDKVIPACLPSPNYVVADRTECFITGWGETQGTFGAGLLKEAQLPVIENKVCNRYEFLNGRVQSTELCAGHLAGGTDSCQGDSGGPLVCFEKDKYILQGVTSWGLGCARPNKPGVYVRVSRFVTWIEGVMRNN
T1 sequence (P00747 97-580 partner limits assumed): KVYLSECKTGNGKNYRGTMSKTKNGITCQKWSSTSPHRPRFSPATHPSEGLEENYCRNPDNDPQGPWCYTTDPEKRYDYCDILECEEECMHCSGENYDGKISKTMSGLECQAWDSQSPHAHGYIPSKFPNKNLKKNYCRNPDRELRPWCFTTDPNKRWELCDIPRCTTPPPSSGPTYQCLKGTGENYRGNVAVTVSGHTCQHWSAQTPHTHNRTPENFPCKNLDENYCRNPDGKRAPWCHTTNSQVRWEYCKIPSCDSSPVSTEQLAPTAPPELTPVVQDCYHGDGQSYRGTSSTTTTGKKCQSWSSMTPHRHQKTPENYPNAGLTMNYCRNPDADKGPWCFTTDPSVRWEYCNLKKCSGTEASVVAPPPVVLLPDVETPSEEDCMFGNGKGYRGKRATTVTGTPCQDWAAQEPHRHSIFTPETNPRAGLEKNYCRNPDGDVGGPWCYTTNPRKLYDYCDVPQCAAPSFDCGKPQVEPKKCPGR
T2 sequence (P03951 388-625 limits assumed): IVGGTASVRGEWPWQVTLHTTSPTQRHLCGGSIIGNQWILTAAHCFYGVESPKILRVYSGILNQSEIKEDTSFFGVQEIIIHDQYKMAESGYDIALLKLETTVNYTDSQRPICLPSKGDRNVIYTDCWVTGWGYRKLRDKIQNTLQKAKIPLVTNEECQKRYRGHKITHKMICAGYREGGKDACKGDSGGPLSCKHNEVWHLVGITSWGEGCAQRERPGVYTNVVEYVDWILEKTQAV
T2 sequence (P03951 19-387 partner limits assumed): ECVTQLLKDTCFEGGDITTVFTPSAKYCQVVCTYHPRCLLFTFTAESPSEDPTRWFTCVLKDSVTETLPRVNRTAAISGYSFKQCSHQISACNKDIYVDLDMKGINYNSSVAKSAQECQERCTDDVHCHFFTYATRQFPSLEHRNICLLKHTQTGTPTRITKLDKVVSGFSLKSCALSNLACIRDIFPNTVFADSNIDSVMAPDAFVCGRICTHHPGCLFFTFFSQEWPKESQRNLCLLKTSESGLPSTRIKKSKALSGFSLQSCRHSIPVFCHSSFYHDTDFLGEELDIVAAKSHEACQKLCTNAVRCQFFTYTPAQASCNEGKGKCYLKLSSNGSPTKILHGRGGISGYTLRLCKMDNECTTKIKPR

Compound: N=C(N)c1ccc(OCCCCCOc2ccc(C(=N)N)cc2)cc1 [pentamidine isethionate, 4,4′-(pentane-1,5-diylbis(oxy))-dibenzimidamide]
- HS (Hill slope) of clot lysis inhibition (human plasmin [1]): 1.2 ± 0.7
- efficacy (ΔY) of clot lysis inhibition (human plasmin [1]): ~ 58%
- IC50 (human plasmin [1]; read-out: IC50 of fibrinolysis (clot lysis) inhibition): ~3.6 µM and 3.6 µM
- APTTEC2×, concentration to double clotting time [2]: 27.05 ± 6.05 µm
- inhibition at 100 µM (FXIa; at 100 µM (highest concentration tested)): < 40%
- IC50 (FXIa; pH 7.4): > 100 µM
- IC50 (bovine chymotrypsin): > 1750 µM
- concentration to double the APTT (normal human plasma): 27.88 ± 2.99 µM
- concentration to double the APTT (normal human plasma; listed as pentamidine): lower than 50 µM
- IC50 (human FXIIIa): > 50 µM
- VMAX of Spectrozyme PL hydrolysis (human plasmin [3]; 10 µM pentamidine isethionate): 78.7 ± 2.0 mAU/min
- VMAX of Spectrozyme PL hydrolysis (human plasmin [3]; 20 µM pentamidine isethionate): 88.4 ± 1.0 mAU/min
- VMAX of Spectrozyme PL hydrolysis (human plasmin [3]; 50 µM pentamidine isethionate): 92.9 ± 3.2 mAU/min
- VMAX of Spectrozyme PL hydrolysis (human plasmin [3]; 100 µM pentamidine isethionate): 90.9 ± 6.5 mAU/min
- type of inhibition of plasmin (human plasmin [3]; Michaelis-Menten kinetics): competitively inhibits
- increase of KM for Spectrozyme PL (human plasmin [3]; inhibitor 100 μM vs absence): ~ 13.9 fold
